Laboratory results taken from a melting point compilation (Tetko et al.; mined from patent text by program, amines drawn as free bases though some values may be those of a salt).

Row | melting point [°C] | SMILES
1 | 244 to 245 | O=[N+]([O-])c1cc2c(c([N+](=O)[O-])c1)NCC2
2 | 249 to 250 | CCOC(=O)Cn1c(=O)[nH]c(=O)c2ccccc21
3 | 199 to 202 | COC(=O)C1CCC2C3CCC4CC(O)C(O)CC4(C)C3C(NC3CCCCC3)CC12C (stereo not given)
4 | 252 | O=c1[nH]c2cccnc2o1
5 | > 300 | O=C(Nc1ccccc1)c1ccccc1Nc1ncnc2[nH]cc(C(=O)c3ccccc3)c12
6 | 196 to 197 | CC(N=c1[nH]c(-c2ccccc2)c(-c2ccnc(Nc3ccccc3)n2)s1)N(C)C (stereo not given)
7 | 178 to 180 | Nc1nc(N)c2cc(CCc3ccccc3)ccc2n1
8 | 86 to 87 | CN(C)c1cccc(S(=O)Nc2ccccc2)c1 (stereo not given)
9 | 143 to 144 | C[C@@H]1OCc2cc3c(nc21)N1[C@H](C3)CN(C(=O)OC(C)(C)C)C[C@H]1C
10 | 153 to 155 | CC(C)(C)OC(=O)COC1=CC(=NS(=O)(=O)c2cccs2)c2ccccc2C1=O
11 | 96 to 97 | CCCCC(=NCC(=O)OCC)c1cc(Cl)ccc1N
12 | 213 | Cc1c(C(=O)Nc2ccc(N3CCC(N4CCC(O)CC4)CC3)c(C#N)c2)cnn1-c1ccc(Cl)cc1
13 | 110 to 111 | CON=C(C)c1ccc(NS(C)(=O)=O)c(Sc2ccc(F)cc2F)c1
14 | 193 to 194 | CN(CCc1c[nH]c2ccc(NC(N)=O)cc12)C(=O)C(F)(F)F
15 | 66 to 68 | CCCCCCOC(=O)CS(=O)(=O)Nc1c(C(C)C)cccc1C(C)C
16 | 38 to 39 | CCCCCCC(=O)COS(=O)(=O)c1ccc(OCC)cc1
17 | 158 to 160 | O=S(=O)(NCCO)c1ccc(Nc2nc(OCC3CCCCC3)c3nc[nH]c3n2)cc1
18 | 131 to 132 | CCOC(=O)c1cc(Cl)c2cccc(OC)c2n1
19 | 164 to 165 | Oc1c2c(nn1-c1ccccn1)CCc1cc(Br)ccc1-2

Row | melting point [°C] | SMILES
20 | 276 to 278 | CC(C)(C)c1cc(NS(=O)(=O)c2ccc(N3CCNC3=O)cc2)cc(C(C)(C)C)c1
21 | 120 to 122 | CC(C)(C)C(=O)OCc1nc(-c2ccc3c(c2)Nc2ccccc2S3)cs1
22 | 84 to 88 | CCCCOC(Cc1ccc(OCCN2c3ccccc3Oc3ccccc32)cc1)C(=O)O (stereo not given)
23 | 203 to 206 | Cc1cc(Cn2nc(C(F)(F)C(F)(F)F)nc2C(F)(F)F)ccc1NC(=O)c1cccc(Cl)c1C(=O)NC(C)(C)C=NO
24 | 58 to 62 | O=C(Nc1ccccn1)C(CC1CCCC1)c1ccc(S(=O)(=O)C(F)(F)F)cc1 (stereo not given)
25 | 164 | COC(=O)c1cccc(-c2nc(=O)c3ccccc3s2)c1
26 | > 220 | O=C1CCC(c2ccc(O)cc2)=NN1c1ccccn1
27 | 61 to 63 | CCCN1CCCC(c2cccc(O)c2)C1=O (stereo not given)
28 | 130 to 133 | COC(=O)c1ccc(=O)n(Cc2ccc(-c3ccccc3)cc2)c1
29 | 150 | O=C(Nc1ccc2[nH]ncc2c1)OC(c1cccc(C(=O)Nc2ccccc2)c1)[C@@H]1CCCCN1 (stereo not given in full)
30 | 87 to 90 | CCNc1ccc(-n2c(C(F)(F)F)nn(C)c2=S)c(Cl)c1
31 | > 230 | CC(=O)Nc1cc(=O)cc2n1CCCCC2
32 | 114 to 116 | COc1ccc(/C=C(\C#N)c2cccc(F)c2)cc1OC1CCCC1
33 | 225 to 226 | COC(=O)C1=C(O)c2c(c3cc(OC)ccc3n2C)S(=O)(=O)N1
34 | 275 to 285 | Cc1ccc2c(-c3cnc4[nH]cc(C(=O)N[C@H](C)C(=O)N5CC(C#N)C5)c4n3)nn(C)c2n1
35 | 210 | O=C(NCC(=O)N(c1ccccc1)c1ccccc1)Nc1cccc(Cl)c1Cl
36 | 92 to 94 | COC(=O)NNc1ccccc1OCCSC
37 | 113 to 115 | COC(=O)C=C1CCOc2ccc(Cl)cc21
38 | 252 to 255 | CCOC(=O)c1nc2cc(NC(=O)c3c(C(=O)N4CCC4)cnn3C)ccn2n1

Row | SMILES | melting point [°C]
39 | CCC(=O)C1(O)CC=C2CC3C4C=CC(O)C5OC1=C2C45CCN3C (stereo not given) | 85 to 86
40 | N#Cc1ccc2[nH]cc(CCNCC(F)(F)F)c2c1 | 102
